Measured values reported in the SangsterLogP compilation.

In order of rising logP:
1. O=C(O)/C=C/c1ccc(O)cc1  1.79
2. COc1cc(C=CC(=O)O)ccc1O  1.87
3. COC(=O)/C=C/c1ccc(O)c(O)c1  2.22
4. COc1ccc(C=CC(=O)O)cc1OC  2.34
5. CCOC(=O)/C=C/c1ccc(O)c(O)c1  2.56
6. O=C(O)/C=C/c1ccc2c(c1)OCO2  2.59
7. COc1ccc(/C=C/C(=O)O)cc1  2.68
8. CCN(CC)CCOC(=O)/C=C/c1cc(OC)c(OC)c(OC)c1  2.84
9. CCN(CC)CCOC(=O)C=Cc1ccc(OC)c(OC)c1  2.88
10. O=C(O)C=CC=Cc1ccccc1  3.15
11. CCN(CC)CCOC(=O)/C=C/c1ccc(F)cc1  3.52
12. CCN(CC)CCOC(=O)/C=C/c1ccccc1  3.61
13. O=C(C=Cc1ccccc1)OCC=Cc1ccccc1  4.45
